Measurements from patent US20060040884A1, “Antisense oligonucleotides directed to genes regulated by trapoxin-induced HDAC inhibition” (priority 2001, published 2006).
Where “and” joins values, the source holds several entries; their conditions need not be identical. Identical values can stand only once. Marks after values point to notes of the source that are not given here. Square brackets hold non-standard residues; d marks the D form. Peptide text beside a SMILES is read from it. ξ: configuration not given here. Aoe(9ξ) = N[C@@H](CCCCCC(=O)C1CO1)C(=O)O; dPip = O=C(O)[C@H]1CCCCN1

Tested on: H1299 cells
Test: Microarray expression profiling of TPX- vs DMSO-treated H1299 cells (Affymetrix HU6800 and Incyte UniGem V arrays)
Assay type: cell-based, human
Details: 30 nM vs DMSO
Procedure: Cell Culture and Drug Treatments. […] H1299 cells at 60 to 80% confluence are treated with 30 nM TPX dissolved in dimethyl sulphoxide for a final concentration of 0.1% Me2SO in cell culture medium or 0.1% Me2SO for 0, 6, 12, and 18 h.
Incyte cDNA arrays. H1299 cells are treated with 30 nM TPX dissolved in Me2SO or Me2SO for 0, 6, 12 and 18 h. Final Me2SO concentrations were 0.1% in cell culture medium. Total RNA is extracted using TRIZOL reagent (Life Technologies, Rockville, Md.) and purified using RNAeasy reagents (Qiagen, Valencia Calif.). Poly (A)^+ RNA (mRNA) is prepared from total RNA using Oligotex columns (Qiagen, Valencia, Calif.) and the procedure is repeated twice to minimize contamination with ribosomal RNA. The mRNA concentrations are determined using RiboGreen RNA Quantitation kit (Molecular Probes, Eugene, Oreg.) and equal amounts of mRNA from each sample is used in labeling reactions that are performed by Synteni Division of Incyte Genomics, Inc. (Palo Alto, Calif.). Complementary DNAs are prepared by […] and labeled with Cy3-deoxyuridine triphosphate (Cy3) or Cy5-deoxyuridine triphosphate (Cy5) fluorescent nucleotides. cDNA samples from cells that are treated with Me2SO are labeled with Cy3 and the TPX-treated samples are labeled with Cy5. Replicates were labeled with reversed fluorescent labels to accommodate biases attributable to labeling. The Cy3 and Cy5 samples from each time point are combined and hybridized to UniGem […] arrays (Iyer, V. R., et al., (1999) Science 283, 83-87). This array contains cDNAs that represent approximately 7000 human genes.
Affymetrix oligonucleotide arrays. Total RNA and Poly (A)^+ RNA is isolated from TPX or Me2SO-treated H1299 cells essentially as it was for Incyte cDNA arrays. Total RNA is isolated from p21^waf1-10 cells that are grown in the presence or in the absence of tetracycline for 6, 12 and 48 h. 1st strand cDNA synthesis is performed using Superscript Choice System (Life Technologies) and a T7prFB-t30 primer, 5′-AAACGACGGCACA […]-t30-3′ (SEQ ID NO 1). Biotinylated complementary […] is made using the T7 Megascript system (Ambion, Austin, Tex.), substituting NTP labeling-mix containing biotinylated CTP and UTP. The labeled, purified cDNA is fragmented into <50 bp pieces at 95° C. in MgCl2 buffer to-increase the efficiency of hybridization to 20-mer oligos on the arrays. These labeled fragments are hybridized to HU6800 arrays (Affymetrix, Santa Clara, Calif.) as described previously (Lockhart, D. J., et al., (1996) Nat. Biotechnol. 14, 1675-1680; Alon, U. et al., (1999) Proc. Natl. Acad. Sci. U.S.A. 96, 6745-6750). This array represents approximately 7000 human genes. Briefly, samples are hybridized for 16 h at 45° C. with constant rotation at 60 rpm. The arrays are washed and stained using an Affymetrix fluidics station. The stain included streptavidin-phycoerythrin (10 μg/ml; Molecular Probes, Eugene, Oreg.) and biotinylated goat anti-streptavidin (3 μg/ml; Vector Laboratories, Burlingame, Calif.).
Imaging and Data Analysis. Affymetrix arrays are scanned with a HP argon-ion laser confocal microscope, with a 488 nm […] and detection at 570 nm. Affymetrix fold changes are calculated using GeneChip 3.3 software (Affymetrix). Incyte Pharmaceutical Inc. uses a laser confocal microscope to determine the fluorescence intensities from Incyte cDNA arrays. The fluorescent images (Cy3 and Cy5) from the Incyte cDNA arrays are normalized to total fluorescence from each channel for all genes for labeling efficiency differences and considered the normalized data is used for calculation of the gene expression ratios.

## O=C(CCCCC[C@@H]1NC(=O)[C@H]2CCCCN2C(=O)[C@H](Cc2ccccc2)NC(=O)[C@H](Cc2ccccc2)NC1=O)C1CO1 (stereo partly drawn) [TPX, Trapoxin A] (cyclo(FF[dPip][Aoe(9ξ)]))
6 h
  Fold change, AB011146 KIAA0574, similar to an RNA binding protein: NC (<2 fold change in expression level (NC))
  Fold change, AF012086 RAN-binding protein 2-like: NC (<2 fold change in expression level (NC))
  Fold change, AF052578 RAN [RNA processing]: NC (<2 fold change in expression level (NC))
  Fold change, AF052578 RAN [Small GTP-ases]: NC (<2 fold change in expression level (NC))
  Fold change, AF109161 p35srj [Stress]: NC (<2 fold change in expression level (NC))
  Fold change, AF109161 p35srj [Transformation and TKRs]: NC (<2 fold change in expression level (NC))
  Fold change, AL047358 Insulin-induced gene 1: 2.2 fold and 2.8 fold
  Fold change, AL047358 Spermidine/spermine N1-acetyltransferase: NC (<2 fold change in expression level (NC))
  Fold change, AL720570 Hepatoma-derived growth factor: NC (<2 fold change in expression level (NC))
  Fold change, D00596 Thymidylate synthetase: NC (<2 fold change in expression level (NC))
  Fold change, D16105 Leukocyte receptor tyrosine kinase: NC (<2 fold change in expression level (NC))
  Fold change, D50920 KIAA0130, thyroid receptor interacting protein: NC (<2 fold change in expression level (NC))
  Fold change, D85429 Hsp 40: 4.0^8 fold and 3.9^8 fold
  Fold change, J03909 γ-IFN-inducible, IP-30: 3.9^5 fold and 3.9^2 fold
  Fold change, L03840 Fibroblast growth factor receptor: 2.4* fold and 2.7* fold
  Fold change, L16991 Thymidylate kinase: NC (<2 fold change in expression level (NC))
  Fold change, L20010 Host cell factor: NC (<2 fold change in expression level (NC))
  Fold change, L32976 Mixed lineage kinase-3: NC (<2 fold change in expression level (NC))
  Fold change, M12174 RhoB: 6.2^5 fold and 9.0^8 fold
  Fold change, M55153 Transglutaminase 2: NC (<2 fold change in expression level (NC))
  Fold change, M58286 TNF Receptor: NC (<2 fold change in expression level (NC))
  Fold change, M59828 Hsp 70: 3.5 fold and 4.1 fold
  Fold change, M76125 Tyrosine kinase receptor (TKR) axl: NC (<2 fold change in expression level (NC))
  Fold change, M80244 Human E16: NC (<2 fold change in expression level (NC))
  Fold change, M80899 AHNAK nucleoprotein/desmoykin: NC (<2 fold change in expression level (NC))
  Fold change, M86406 Actinin: NC (<2 fold change in expression level (NC))
  Fold change, N33982 c-Yes-associated protein: NC (<2 fold change in expression level (NC))
  Fold change, NM006603 Stromal antigen 2: NC (<2 fold change in expression level (NC))
  Fold change, U03057 Actin-bundling protein: NC (<2 fold change in expression level (NC))
  Fold change, U09578 MAKAP kinase (3 pk): NC (<2 fold change in expression level (NC))
  Fold change, U09579 p21waf1 (1st line): 6.1* fold and 6.6* fold
  Fold change, U09579 p21waf1 (2nd line): 2.3 fold and 3.3 fold
  Fold change, U09937 Upa receptor (UpaR) (1st line): NC (<2 fold change in expression level (NC))
  Fold change, U14750 Connective tissue growth factor: 3.1 fold and 3.6 fold
  Fold change, U15782 Cleavage stimulation factor 3: NC (<2 fold change in expression level (NC))
  Fold change, U25804 Caspase-4: NC (<2 fold change in expression level (NC))
  Fold change, U28749 HMGI-C (2nd line): NC (<2 fold change in expression level (NC))
  Fold change, U28749 High mobility group phosphoprotein I-C (HMGI-C) (1st line): NC (<2 fold change in expression level (NC))
  Fold change, U32519 GAP SH3 binding protein: 5.7^8 fold and 5.8^8 fold
  Fold change, U35113 Metastasis-associated 1, MTA-1 [Metastasis and invasion]: NC (<2 fold change in expression level (NC))
  Fold change, U35113 Metastasis-associated protein 1 (MTA-1) [Chromatin remodeling]: NC (<2 fold change in expression level (NC))
  Fold change, U48795 Cathelicidin antimicrobial peptide: NC (<2 fold change in expression level (NC))
  Fold change, U56833 VBP-1: NC (<2 fold change in expression level (NC))
  Fold change, U77413 O-linked-N-acetylglucosamine transferase: NC (<2 fold change in expression level (NC))
  Fold change, U84214 Defender against cell death 1: NC (<2 fold change in expression level (NC))
  Fold change, X03473 Histone H1 (0) [Chromatin remodeling]: 6.8^4 fold and 10.8^8 fold
  Fold change, X03473 Histone H1 (0) [Differentiation]: 6.8^4 fold and 10.8^8 fold
  Fold change, X04429 Plasminogen activator inhibitor 1: NC (<2 fold change in expression level (NC))
  Fold change, X16396 NAD-dependent methylene teterahydrofolate dehydrogenase-methylenyltetrahydrofolate cyclohydrolase: NC (<2 fold change in expression level (NC))
  Fold change, X16665 Homeobox B2 (Hoxb2): NC (<2 fold change in expression level (NC))
  Fold change, X37546 Inhibitor of apoptisis homolog B: NC (<2 fold change in expression level (NC))
  Fold change, X53586 Integrin α-6: NC (<2 fold change in expression level (NC))
  Fold change, X55740 5′-nucleotidase: NC (<2 fold change in expression level (NC))
  Fold change, X59798 Cyclin D1: NC (<2 fold change in expression level (NC))
  Fold change, X66029 TKR axl: NC (<2 fold change in expression level (NC))
  Fold change, X71874 MECL-1: NC (<2 fold change in expression level (NC))
  Fold change, X78687 G9 sialidase: 3.0^8 fold and 3.4^8 fold
  Fold change, X89713 Death-associated protein-5: NC (<2 fold change in expression level (NC))
12 h
  Fold change, A1581499 Apoptosis inhibitor 2: NC (<2 fold change in expression level (NC))
  Fold change, AB011146 KIAA0574, similar to an RNA binding protein: 2.7 fold
  Fold change, AF012086 RAN-binding protein 2-like: 9.1 fold and 8.3 fold
  Fold change, AF052578 RAN [RNA processing]: NC (<2 fold change in expression level (NC))
  Fold change, AF052578 RAN [Small GTP-ases]: 2.9 fold and 2.0 fold
  Fold change, AF109161 p35srj [Stress]: 3.5 fold and 2.4 fold
  Fold change, AF109161 p35srj [Transformation and TKRs]: 3.5 fold and 2.4 fold
  Fold change, AL047358 Insulin-induced gene 1: 7.9 fold and 6.4 fold
  Fold change, AL047358 Spermidine/spermine N1-acetyltransferase: 3.8 fold and 2.3 fold
  Fold change, AL720570 Hepatoma-derived growth factor: NC (<2 fold change in expression level (NC))
  Fold change, AW072424 5′-nucleotidase: −3.7 fold
  Fold change, D00596 Thymidylate synthetase: NC (<2 fold change in expression level (NC))
  Fold change, D16105 Leukocyte receptor tyrosine kinase: NC (<2 fold change in expression level (NC))
  Fold change, D50920 KIAA0130, thyroid receptor interacting protein: NC (<2 fold change in expression level (NC))
